Several values for one entry are separate records, joined by “and”; a condition that tells them apart may be missing. Identical values can stand only once.
Legend:
Assay type in all cases: in vivo, V. pensylvanica
[1] = system: Vespidae; assay: Box attraction test of single test agents (Example 1); conditions: 500 μL test agent in white box, 15 min tests, two tests, San Mateo County, July 2016; acetic acid 5%, citric acid 750 mM, ethanol 40%
[2] = system: Vespidae; assay: Box attraction test of heptyl butyrate with citric, malic or tartaric acid (Experiment 3); conditions: 500 μL of each agent, white box, 15 min tests, three tests, July 2017, acid alone, heptyl butyrate alone and combination run together, * P < 0.05 vs heptyl butyrate alone
Protocol: Materials and Methods. The third experiment evaluated combinations of heptyl butyrate and citric acid, malic acid, and tartaric acid versus heptyl butyrate alone as baits for Vespidae.
Attraction Measurements. Testing the efficacy of attraction of the chemicals was conducted using an apparatus that allows visualization of the Vespidae to an area with the attractant. This can be prepared in a variety of ways including the use of white 4-sided boxes in which the different attractants are placed at the bottom of the box. Attraction of the Vespidae to the boxes is visualized and Vespidae are counted when they fly into the plane of the box toward the attractant. Each experiment lasted 15 minutes and every 5 minutes, the boxes would be cleared of Vespidae and rotated counterclockwise to eliminate any possible effect of direction. Each experiment was conducted three times over the course of one day, for a total of 9 replicates per test.
Boxes were prepared using white paper (one foot square) and applying them to equal sizes of cardboard to create a 4-sided box with the white paper in the inside of the box. Boxes were placed in a triangle pattern on the ground and spaced equally three to four feet apart. Disposable plates with clipped-on absorbent material in them were placed in the bottom on the boxes. Each tested combination of attractants was poured onto the absorbent material on the plate and placed into a testing box.
Chemical Treatments. Four chemical treatments were selected and combined with heptyl butyrate and compared to heptyl butyrate alone as baits for Vespidae. Chemicals combined with heptyl butyrate included citric acid solution (5 grams in 50 mLs of water), malic acid (6 grams in 50 mLs of water), and tartaric acid (7 grams in 50 mLs of water). Experiment 3 used 500 μL of each test agent combined for a total of 1000 μL total volume in each test. The heptyl butyrate test used 500 μL of water and 500 µL of heptyl butyrate.

[3] = system: Vespidae; assay: 14-day trapping test in RESCUE Reusable Yellowjacket traps (Experiment 4); conditions: 2 mL heptyl butyrate with or without 2 mL acid solution in trap, hung 14 days, counted day 15
Protocol: Materials and Methods. The fourth experiment evaluated combinations of heptyl butyrate and citric acid, malic acid, and tartaric acid versus heptyl butyrate alone as baits for Vespidae. Heptyl butyrate was included for comparison because of its known attractiveness to V. pensylvanica (Davis et al., 1969, Supra).
Attraction Measurements. Testing the efficacy of attraction of the chemicals was conducted using four standard commercially-available RESCUE Reusable Yellowjacket® traps filled with the various test agents. In this experiment, the traps were set and hung 5-6 feet off of the ground with all traps separated by 3-4 feet from one another. Chemical treatments were added to the attractant chambers (cotton absorbant material) of the trap and hung for 14 days. Measurements of the number of trapped Vespidae were made on day 15.
Chemical Treatments. Four chemical treatments were selected and combined with heptyl butyrate and compared to heptyl butyrate alone as baits for Vespidae. Chemicals combined with heptyl butyrate included citric acid solution (5 grams in 50 mLs of water), malic acid (6 grams in 50 mLs of water), and tartaric acid (7 grams in 50 mLs of water). Experiment 4 used 2 mL of the standard attractant (heptyl butyrate) as is found in the RESCUE reusable yellowjacket traps for the heptyl butyrate alone test. […]

| SMILES | Total Number of Vespidae Attracted to Single Test Agents, Sum Test 1 + 2 [1] | Total Number of Vespidae Attracted to Different Test Conditions [2] | Total Number of Vespidae Attracted to Different Test Conditions ([2]; listed as heptyl butyrate) | Total Number of V. Pensylvanica (Vespidae) Trapped During a 14-Day Test [3] |
| --- | --- | --- | --- | --- |
| CC(=O)O [Acetic Acid, acetic acid] | 2 | – | – | – |
| CCCC(=O)O [Butyric Acid, butyric acid] | 5 | – | – | – |
| O=C(O)CC(O)(CC(=O)O)C(=O)O [Citric Acid, citric acid] | 10 | 22 | – | – |
| CCO [Ethanol, ethanol] | 2 | – | – | – |
| CCCCCCCOC(=O)CCC [Heptyl Butyrate, heptyl butyrate] | 343 | 355 and 590 and 477 | 477 and 355 and 590 | 91 |
| CC(C)CO [Isobutanol, isobutanol] | 21 | – | – | – |
| CC(O)C(=O)O (stereo not shown) [Lactic Acid, lactic acid] | 5 | – | – | – |
| O=C(O)CC(O)C(=O)O (stereo not shown) [Malic Acid, malic acid] | – | 19 | – | – |
| O=C(O)C(O)C(O)C(=O)O (stereo not shown) [Tartaric Acid, tartaric acid] | – | 15 | – | – |

— US10624340B2, “Chemical combinations for attracting Vespidae” (priority 2017, dated 2020)
